Measured values reported in ChEMBL document CHEMBL4765492, “Discovery of GLPG2451, a Novel Once Daily Potentiator for the Treatment of Cystic Fibrosis” (J Med Chem, 2021).

Columns and labels:
[1] = target: Cystic fibrosis transmembrane conductance regulator (Homo sapiens, UniProt P13569, F508DEL); assay: Potentiation of CFTR F508del mutant (unknown origin) expressed in human CFBE41o- cells co-expressing YFP incubated for 10 mins by halide potentiator assay; type: cell-based
[2] = Unbound intrinsic clearance in rat liver microsomes; type: ADME, Microsome
[3] = Unbound clearance in Sprague-Dawley rat at 1 mg/kg, iv; type: ADME, organism-based; settings: in vivo
[4] = Unbound intrinsic clearance in human liver microsomes; type: ADME, Microsome
[5] = Clearance in rat at 1 mg/kg, iv relative to hepatic blood flow; type: ADME, organism-based; settings: in vivo
[6] = target: Cystic fibrosis transmembrane conductance regulator (Homo sapiens, UniProt P13569, G551D); assay: Potentiation of CFTR G551D mutant (unknown origin) expressed in human HEK293 cells co-expressing YFP incubated for 10 mins by halide potentiator assay; type: cell-based
Sequence of Cystic fibrosis transmembrane conductance regulator (Homo sapiens, UniProt P13569, G551D) (P13569 whole entry G551D): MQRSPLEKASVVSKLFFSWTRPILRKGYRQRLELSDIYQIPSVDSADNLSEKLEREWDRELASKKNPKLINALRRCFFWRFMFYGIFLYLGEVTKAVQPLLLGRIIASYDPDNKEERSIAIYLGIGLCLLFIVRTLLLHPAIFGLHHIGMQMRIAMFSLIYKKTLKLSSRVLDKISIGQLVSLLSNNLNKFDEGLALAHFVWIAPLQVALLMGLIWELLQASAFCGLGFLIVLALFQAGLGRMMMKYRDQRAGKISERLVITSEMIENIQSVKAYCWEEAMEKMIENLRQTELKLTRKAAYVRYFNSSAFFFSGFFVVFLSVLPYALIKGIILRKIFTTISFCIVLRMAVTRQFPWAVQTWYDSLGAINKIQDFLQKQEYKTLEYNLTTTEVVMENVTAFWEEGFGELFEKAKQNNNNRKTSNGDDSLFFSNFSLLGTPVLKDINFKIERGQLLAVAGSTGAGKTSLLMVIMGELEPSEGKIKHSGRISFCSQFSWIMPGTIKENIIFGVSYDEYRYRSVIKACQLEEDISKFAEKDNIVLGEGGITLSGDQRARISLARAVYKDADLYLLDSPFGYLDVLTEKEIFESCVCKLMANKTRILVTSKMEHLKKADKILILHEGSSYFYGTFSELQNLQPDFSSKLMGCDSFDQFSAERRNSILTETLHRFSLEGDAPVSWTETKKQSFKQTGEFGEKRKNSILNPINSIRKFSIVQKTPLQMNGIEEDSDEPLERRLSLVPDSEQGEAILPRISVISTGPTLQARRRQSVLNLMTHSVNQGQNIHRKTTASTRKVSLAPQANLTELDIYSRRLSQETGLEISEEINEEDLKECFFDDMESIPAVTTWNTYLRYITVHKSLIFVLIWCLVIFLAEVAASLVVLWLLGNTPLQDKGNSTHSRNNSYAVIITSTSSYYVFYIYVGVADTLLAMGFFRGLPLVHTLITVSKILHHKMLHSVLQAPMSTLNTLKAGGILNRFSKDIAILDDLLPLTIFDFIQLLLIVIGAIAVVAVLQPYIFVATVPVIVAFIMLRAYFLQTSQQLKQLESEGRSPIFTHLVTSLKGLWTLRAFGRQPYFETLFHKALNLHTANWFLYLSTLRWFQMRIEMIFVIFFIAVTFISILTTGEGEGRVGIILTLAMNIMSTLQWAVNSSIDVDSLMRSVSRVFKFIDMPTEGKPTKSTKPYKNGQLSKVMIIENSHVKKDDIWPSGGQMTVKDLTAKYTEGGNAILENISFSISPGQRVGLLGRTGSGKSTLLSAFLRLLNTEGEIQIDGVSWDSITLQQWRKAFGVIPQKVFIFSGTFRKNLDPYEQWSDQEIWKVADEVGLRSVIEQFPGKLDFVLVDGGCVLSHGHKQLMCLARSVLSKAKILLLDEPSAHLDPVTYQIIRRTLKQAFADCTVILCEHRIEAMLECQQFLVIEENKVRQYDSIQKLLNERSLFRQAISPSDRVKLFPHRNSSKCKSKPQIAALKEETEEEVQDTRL

[7] = Clearance in Sprague-Dawley rat at 1 mg/kg, iv; type: ADME, organism-based; settings: in vivo
[8] = AUC in rat at 5 mg/kg, po; type: ADME, organism-based; parameters: dose 5 mg/kg; settings: in vivo
[9] = Volume of distribution at steady state in Sprague-Dawley rat at 1 mg/kg, iv; type: ADME, organism-based; settings: in vivo, read-out: Vdss
[10] = Oral bioavailability in rat at 5 mg/kg; type: ADME, organism-based; settings: in vivo
[11] = system: Cystic fibrosis transmembrane conductance regulator (Homo sapiens), P13569 [G551D]; assay: Potentiation of CFTR G551D mutant (unknown origin) expressed in human HEK293 cells co-expressing YFP incubated for 10 mins by halide potentiator assay relative to control; type: cell-based; settings: filed as activator
Sequence of Cystic fibrosis transmembrane conductance regulator (Homo sapiens), P13569 [G551D] (P13569 whole entry G551D): as above

[12] = Half life in Sprague-Dawley rat at 1 mg/kg, iv; type: ADME, organism-based; settings: in vivo
[13] = Permeability of compound across apical to basolateral membrane in MDCK cells; type: ADME, cell-based, Canis lupus familiaris; settings: dog, read-out: permeability
[14] = Permeability efflux ratio in MDCK cells; type: ADME, cell-based, Canis lupus familiaris; settings: dog
[15] = Unbound intrinsic clearance in rat hepatocytes; type: ADME, cell-based, Hepatocyte

Sequence of Cystic fibrosis transmembrane conductance regulator (Homo sapiens, UniProt P13569, F508DEL) (P13569 as listed by the source): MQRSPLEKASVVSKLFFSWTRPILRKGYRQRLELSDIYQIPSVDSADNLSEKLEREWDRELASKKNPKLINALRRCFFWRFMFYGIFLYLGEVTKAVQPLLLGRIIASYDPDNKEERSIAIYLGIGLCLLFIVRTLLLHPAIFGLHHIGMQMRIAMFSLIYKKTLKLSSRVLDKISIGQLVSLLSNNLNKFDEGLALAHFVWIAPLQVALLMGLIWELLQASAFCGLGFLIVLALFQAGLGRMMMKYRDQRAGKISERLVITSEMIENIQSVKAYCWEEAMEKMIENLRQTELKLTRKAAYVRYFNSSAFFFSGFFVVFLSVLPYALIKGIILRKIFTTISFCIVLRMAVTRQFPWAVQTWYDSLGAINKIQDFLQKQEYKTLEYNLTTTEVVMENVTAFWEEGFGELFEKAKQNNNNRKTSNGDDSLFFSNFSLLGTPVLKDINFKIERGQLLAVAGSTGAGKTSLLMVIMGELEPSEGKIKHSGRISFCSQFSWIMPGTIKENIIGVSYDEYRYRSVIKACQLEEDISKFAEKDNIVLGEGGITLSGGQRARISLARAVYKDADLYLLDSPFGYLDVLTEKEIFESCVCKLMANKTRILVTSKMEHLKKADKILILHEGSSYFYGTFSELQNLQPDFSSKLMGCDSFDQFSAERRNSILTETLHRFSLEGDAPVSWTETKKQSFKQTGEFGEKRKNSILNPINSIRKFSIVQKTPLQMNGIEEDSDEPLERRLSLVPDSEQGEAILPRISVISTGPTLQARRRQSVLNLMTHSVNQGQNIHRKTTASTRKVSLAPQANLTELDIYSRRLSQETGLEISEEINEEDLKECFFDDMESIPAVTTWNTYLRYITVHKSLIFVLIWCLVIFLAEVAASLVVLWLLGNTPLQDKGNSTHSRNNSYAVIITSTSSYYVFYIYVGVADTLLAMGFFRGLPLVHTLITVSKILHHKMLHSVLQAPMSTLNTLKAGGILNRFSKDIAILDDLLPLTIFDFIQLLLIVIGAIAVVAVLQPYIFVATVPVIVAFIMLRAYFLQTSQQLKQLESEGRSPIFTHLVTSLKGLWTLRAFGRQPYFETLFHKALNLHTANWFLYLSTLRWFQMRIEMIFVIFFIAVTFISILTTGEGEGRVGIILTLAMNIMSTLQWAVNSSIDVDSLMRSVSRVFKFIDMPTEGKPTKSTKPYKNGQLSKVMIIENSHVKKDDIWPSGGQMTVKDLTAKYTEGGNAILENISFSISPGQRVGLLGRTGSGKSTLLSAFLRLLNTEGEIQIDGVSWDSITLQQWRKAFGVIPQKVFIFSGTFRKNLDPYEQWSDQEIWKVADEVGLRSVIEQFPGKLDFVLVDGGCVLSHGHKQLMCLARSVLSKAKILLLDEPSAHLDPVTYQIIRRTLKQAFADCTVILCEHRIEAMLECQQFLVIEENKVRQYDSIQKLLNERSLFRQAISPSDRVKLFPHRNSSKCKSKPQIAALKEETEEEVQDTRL

Row | Compound | EC50 [1] | CL free [2] | CL free [3] | CL free [4] | clearance [7] | AUC [8] | Vd [9] | half-life [12] | Papp A→B [13] | efflux ratio [14] | also measured
1 | Nc1cc(S(=O)(=O)c2ccc(C(F)(F)F)cc2)cnc1C(=O)N1CCC[C@H]1CO | > 2 µM |  |  |  |  |  |  |  |  |  | 
2 | NC(=O)c1cc(S(=O)(=O)c2ccc(F)cc2)sc1NC(=O)C1(O)CC1 | 0.079 µM | 76.7 mL/min/kg |  |  |  | 500 ng·h/mL |  |  | 1 ×10⁻⁶ cm/s | 137 | CL free [15]: 107 mL/min/kg
3 | NC(=O)c1cc(S(=O)(=O)c2ccc(F)cc2)sc1NC(=O)c1ccn[nH]1 | 0.029 µM | 71.7 mL/min/kg |  |  |  |  |  |  | 0.9 ×10⁻⁶ cm/s | 37 | 
4 | CC(C)(C)C(=O)Nc1sc(S(=O)(=O)c2ccc(F)cc2)cc1C(N)=O | 0.352 µM | 105 mL/min/kg |  |  |  |  |  |  |  |  | 

The next compounds have a lower EC50 [1] than those just listed; values first:

Row | EC50 [1] | CL free [2] | CL free [3] | CL free [4] | clearance [7] | AUC [8] | Vd [9] | half-life [12] | Papp A→B [13] | efflux ratio [14] | Compound | also measured
5 | 0.0028 µM | 93.3 mL/min/kg |  |  |  |  |  |  |  |  | Nc1cc(S(=O)(=O)c2ccc(OC(F)(F)F)cc2)cnc1C(=O)NCC1(O)CC1 | 
6 | 0.02 µM | 33 mL/min/kg | 167 mL/min/kg | 10 mL/min/kg | 2.05 mL/min/kg | 12400 ng·h/mL | 2.7 L/kg | 15.5 h |  |  | COc1ccc(S(=O)(=O)c2cc(C(N)=O)c(NC(=O)C(C)(C)O)s2)cc1 | CLH [5]: < 3%; EC50 [6]: 0.478 µM; bioavailability [10]: 46%; Activity [11]: 85%
7 | 0.026 µM | 30 mL/min/kg |  |  |  | 5600 ng·h/mL |  |  | 4 ×10⁻⁶ cm/s | 5 | CC(C)(O)C(=O)Nc1sc(S(=O)(=O)c2ccc(F)cc2)cc1C(N)=O | CL free [15]: 46.7 mL/min/kg
8 | 0.0078 µM | 26.7 mL/min/kg | 26.8 mL/min/kg | 17 mL/min/kg | 2.17 mL/min/kg |  | 2.9 L/kg | > 15 h |  |  | Nc1cc(S(=O)(=O)c2ccc(F)cc2)cnc1C(=O)NC[C@@H](O)C(F)(F)F | 
9 | 0.005 µM | 300 mL/min/kg | 317 mL/min/kg | 130 mL/min/kg | 31.7 mL/min/kg |  | 3.2 L/kg | 1.3 h |  |  | Nc1cc(S(=O)(=O)N2CCC(OC(F)(F)F)CC2)cnc1C(=O)NCC(O)C(F)(F)F (configuration not stated) | 
